This is an account of results in ChEMBL document CHEMBL1145311 (Bioorg Med Chem Lett, 2006).

This test concerns the target T1, Dihydrofolate reductase (Pneumocystis carinii, UniProt P16184).
T1 sequence (P16184 whole entry): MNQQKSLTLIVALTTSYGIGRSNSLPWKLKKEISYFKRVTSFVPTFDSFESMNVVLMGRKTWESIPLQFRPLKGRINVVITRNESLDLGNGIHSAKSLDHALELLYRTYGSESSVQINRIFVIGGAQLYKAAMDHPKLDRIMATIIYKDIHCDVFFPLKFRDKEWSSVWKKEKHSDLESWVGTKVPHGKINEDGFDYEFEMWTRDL
Description: Inhibition of Pneumocystis carinii DHFR

Usually IC50 stands for the concentration that inhibits the measured activity by half. Low values mean higher potency, high ones lower potency. As to `Nc1nc(N)c2nc(CN3c4ccccc4CCc4ccccc43)cnc2n1`, the IC50 was 210 nM.
